Results from US5919464A, “Treatment of aberrant cellular states with biomodulators” (University of New Mexico, priority 1993, dated 1999).

Assays:
[1] = tested on: antibody formation; conditions: in words, cited from earlier work
[2] = tested on: IL-2R; LAK; conditions: in words, cited from earlier work
[3] = tested on: B16 melanoma cells; experiment: effect of swainsonine on cytotoxic T-lymphocytes (51Cr cytotoxicity assay); type: in vivo, mouse
Procedure: The cytotoxicity assay used two targets: YAC-1, for natural killer cell targets and B16 melanoma cells, for cytolytic T-cell targets. The YAC-1 cells were labelled in GKN (glucose/KCl/NaCl) with ^51 Cr (NEN-DuPont,400-1200 Ci/g activity) for 60 min. The B16's were ^51 Cr labelled in complete α-MEM media for 60 min. Both targets were washed twice through whole fetal calf serum to remove damaged and dead cells and then suspended in complete RPMI at a final concentration of 1×10^5 cells/ml. The spleen cells (effector cells) were plated in round bottom 96 well trays starting at 1×10^7 cells/ml (100μl/well), using a halving dilution that provided splenocyte concentrations of 10^6, 5×10^5, 2.5×10^5, 1.25×10^5, 6.25×10^4 and 3.125×10^4, all done in triplicate. The target cells were added at 1×10^4 cell/100 μl/well; this gave an effector:target cell ratio ranging from 100:1 to 3:1. Controls included spontaneous ^51 Cr release and 100% lysis (10% triton treatment). The trays were centrifuged at 50×g for 5 min. and incubated in a CO2 incubator at 37° C. for 16 hours. The trays were spun again at 50×g for 5 minutes and 100 μl removed from each well for counting. A Packard gamma counter (United Technologies) was used for counting. Each sample was counted for 1 min. giving a 5% counting efficiency. The following equation was used to determine percent lysis. [formula]
The effector:target ratios were then plotted against percent lysis and a simple line equation was determined for each treatment group. The slope of this line was then used to determine the total effector kill efficiency.
The ^51 Cr cytotoxicity assay was also run with the B16 melanoma cells as the target and the splenocytes from the same mice as above as the effector cells. The baseline mice (no tumor/no Sw) and the control mice (tumor/no Sw) had very similar line shapes and slopes. There were significant differences (p=0.03) between the presence and absence of tumor (see Table in FIG. 68).

[4] = tested on: B16 melanoma cells; experiment: effect of swainsonine on B16 melanoma solid tumor growth; type: in vivo, C57Bl/6 mice; conditions: for inhibition of B16 growth at other doses: 1.0, 0.01 and 0.001 μg Sw
Procedure: The B16 melanoma cells were purchased from American Type Culture Collection (ATCC). They were maintained in complete α-MEM (SIGMA) (with 10% fetal calf serum (FCS) (Sigma), 100 U/ml penicillin (Sigma), 100 μg/ml streptomycin (Sigma) and 2 mM glutamine (Sigma)) in Corning 75 cm^2 straight necked flasks (T75) and grown with 5.5% CO2 in air with 95% humidity in a New Brunswick Scientific water jacketed incubator. […] They were harvested using 1× Trypsin-EDTA (Sigma), centrifuged at 100×g with a Beckman TJ6 centrifuge, counted using a hemocytometer and stained with trypan blue to determine viability. The cells used for injection into the mice were washed three times in phosphate buffered saline (PBS), counted and resuspended in PBS at a final concentration of 6×10^6 cells per ml.
The swainsonine, purchased from Boehringer Mannheim, was initially suspended in PBS at 100 μg/ml. Subsequent dilutions utilized in the following experiments were made in PBS.
Fifteen female C57Bl/6 mice (6 weeks old, from Harlan Sprague Dawley Laboratories) were treated 3 times per week on a Monday-Wednesday-Friday (MWF) schedule for three weeks prior to the injection of the 6×10^5 B16 melanoma cells. The treatment consisted of 0.1 ml (total volume) intraperitoneal injections of swainsonine in the mornings before 9:00 am. The treatment groups were as follows:
The MWF treatment with the swainsonine continued after the tumor cell injection until the termination of the study. Once the tumor was palpable, electronic calipers were used to measure the length (l), width (w) and depth (d) of the tumor. The volume of the tumor was then determined by V=πr^2 ×d, with the assumption that the tumor is a […], then r=(l+w)/4.

[5] = tested on: splenocytes; experiment: effect of swainsonine on humoral immunity (PFC assay); type: in vivo, mouse
Procedure: The plaque forming cell (PFC) assay was done according to the method developed by Jerne and Nordin (1963). The splenocytes were washed in serum-free RPMI-1640 and brought to a final concentration of 1×10^6 cell/100 μl. Sheep red blood cells (sRBC), from The Colorado Serum Company, were labelled with protein A from Staphylococcus aureus (Sigma). The sRBC's were washed 3 times with saline (0.85% NaCl), the packed cells were then incubated with 1 ml of protein A (0.5 mg/ml saline) and 10 ml of saline containing 0.1 μl of CrCl3 (35% solution) (Aldrich), for 20 minutes. The sRBC's were then washed 3 times with PBS and suspended in PBS to make a 30% solution. The sRBC's (50 μl) and splenocytes (100μl) were combined with SeaPlaque agarose (FMC Corporation) and smeared on a 75 mm×50 mm microscope slide to form a lawn of target red blood cells with uniformly dispersed effector cells. Each sample was done in triplicate. The agarose was allowed to harden and the slides were placed in trays containing serum-free RPMI-1640. The trays were incubated at 37° C. in a CO2 incubator for 90 min. After incubation the slides were placed in slide holders containing normal saline for a wash step. The rabbit/anti-mouse antibody (DAKO Corporation) was diluted 1:400 with serum free RPMI-1640 and added to the slide trays. Following another 90 min. incubation at 37° C. in a CO2 incubator, the slides were again washed. Fresh frozen guinea pig complement (GIBCO) (2%) in serum-free RPMI-1640 was added to the slide trays and incubated for another 60 to 90 min. depending on the time necessary for plaque formation. The number of plaques were counted and the results reported as number of plaque forming cells per 1×10^6 splenocytes.
Mice were pretreated for 3 weeks with Sw (0.1 μg and 0.01 μg), and then received B16 cells. At 3 time points post tumor cell injection (day 0, 7 and 14), the mice were sacrificed and the spleens were removed. The cells were then used to determine the effect of Sw on humoral immunity. […] The presence of a day 7 tumor caused a return to baseline for all the groups. […]

O[C@H]1[C@H]2[C@H](O)CCCN2C[C@H]1O [Swainsonine, swainsonine]
antibody production after immunosuppressive factor ([1]; Sw 3.7-100 mg/kg i.p. 5 days): return to normal levels of antibody production | PFC numbers, Sw alone [1]: no changes in PFC numbers | lymphoid IL-2R expression and IL-2 induced proliferation ([2]; following mitogenic stimulation): augmented lymphoid IL-2R expression and IL-2 induced proliferation | LAK induction ([2]; normally sub-optimal stimulation doses): augmented the LAK induction | increase in line slope (kill efficiency) ([3]; 0.1 μg Sw alone): 104% | CTL activity before exposure to specific target ([3]; 0.1 μg Sw for 3 weeks, in words): significant increase in the CTL activity | convertability from NK to CTL ([3]; 0.1 μg Sw with tumors, tumor control 17.5%): 39% | delay of tumor growth onset ([4]; 0.1 μg Sw): two | reduction of tumor size compared to controls ([4]; 0.1 μg Sw, day 9, p=0.03): 74% | reduction of tumor size compared to controls ([4]; 0.1 μg Sw, day 11, p=0.003): 68% | day of palpable tumors ([4]; 0.1 μg Sw, control day 5): 7 days | day of measurable tumors ([4]; 0.1 μg Sw, control day 7): 9 days | tumor growth at 1.0 μg ([4]; 1.0 μg Sw, in words): enhanced growth | inhibition of B16 growth at other doses ([4]; in words): no effect on delaying growth | inhibition of B16 growth at other doses ([4]; in words, listed as Sw): less effective at inhibiting the B16 growth (p<0.5) | increase in plaque forming cells (PFC) ([5]; 0.01 μg Sw 3 weeks over mice not receiving Sw, p=0.001): 89% | PFC versus control group ([5]; 0.1 μg Sw without tumor, in words): not as significantly different from the control group (p=0.04) | PFC versus controls ([5]; 0.1 μg Sw, day 14, in words): not a significant difference between the controls and these treated mice (p=0.13)
